# Assay results published in patent US10197556B2, “Methods to detect non-genotoxic carcinogens using flatworms” (Universiteit Gent, priority 2015, dated 2019).
# Where a name gives a salt, the structure may show the parent alone. Read-outs that look alike come from different tables or passages of the source.
# Columns and labels:
# [1] = system: Schmidtea mediterranea
# Procedure: (§1) Asexual strains of the freshwater planarian Schmidtea mediterranea (38, 45) were maintained in culture medium, consisting of water, that was first deionized and then distilled, and to which the following nutrients were added: 1.6 mM NaCl, 1.0 mM CaCl2, 1.0 mM MgSO4, 0.1 mM MgCl2, 0.1 mM KCl and 1.2 mM NaHCO3. The animals were continuously kept in the dark at a room temperature of 20° C. and were fed once a week with veal liver.
# Experiments were performed with regenerating animals (heads and tails) to accelerate initial responses to carcinogenic compounds, as this process of massive cell proliferation, migration and differentiation resembles the process of carcinogenesis, and, possibly differently affects the dynamics of stem cells toward genotoxic and non-genotoxic carcinogen exposures (16, 32, 39).
# In each experimental condition, animals were cut transversally immediately before exposure to a genotoxic, non-genotoxic or non-carcinogen concentration, medium (control) or medium with DMSO (vehicle control). Exposures were performed in six-well plates (4 ml/well). To exclude intrinsic effects of DMSO on cell proliferation, the DMSO vehicle concentration never exceeded 0.05% and interaction effects between the test compound and DMSO were investigated using a two-way ANOVA (32). […] Animals were fed once a week with veal liver and starved for one week before stem cell proliferation measurements. Stem cell proliferation was measured after one day of regeneration (the mitotic minimum of regeneration), after three days (the mitotic maximum of regeneration), after one week (the end stage of regeneration) after two and six weeks (during homeostasis), as well as at the appearance of organismal phenotypes (15, 46, 47). Phenotypic effects were monitored daily with a stereo microscope.
# An in vivo study allows the investigation of the entire organism's response to carcinogenic compounds and, as such, makes it possible to link carcinogen-induced stem cell proliferation with the organism's phenotype. Conditions were subdivided according to their phenotypic effects into concentrations that caused no observable phenotypic effects (category 1), phenotypic effects (category 2, described in phenotypic effect screening) and concentrations that induced organismal death (category 3). Phenotypic parameters that were monitored daily were tissue regression, lesion, blisters, bloating, pigmentation, behavior, regenerative success, body size, tissue outgrowth, flattened posture and organismal death (35). Stem cell proliferation was quantified at the appearance of systemic effects (category 2 concentrations).
# [2] = system: Macrostomum lignano; conditions: for Overall prediction: final prediction call over three experiments; for prediction by the assay in the experiments: outcome over the experiments
# Procedure: Cultures of Macrostomum lignano (37) were grown in artificial seawater (ASW) enriched with f/2-medium (40) and fed ad libitum with the diatom Nitzschia curvilineata (PAE culture collection; UGent on the World Wide Web at pae.ugent.be/collection.htm), as described in references 41 and 43.
# One week before starting chemical exposure, a six-well plate filled with 4 ml f/2 medium (Novolab NV) was inoculated with diatoms to achieve an ad libitum food source during exposure. Starvation of the worms leads to a decrease in stem cell proliferation (as shown in Nimeth et al (29)), which would interfere with stem cell proliferation, the endpoint of the assay. Before the start of exposure, fifteen adult worms per condition were pipetted in each well, which was then emptied by pipetting without drying out the worms and refilled with f/2 medium (control), if required, F2+0.05% DMSO (vehicle control) and a concentration of the chemical.
# The DMSO concentration in the vehicle control never exceeded 0.05%. This represented the maximum DMSO percentage in the chemical's highest test concentration.
# To select the appropriate compound concentration, first, a broad concentration range-finding experiment (spacing factor 10; two weeks exposure) was carried out. Based on this pilot range finding, a fine-tuned range finding (spacing factor less than or equal to 2; for D-Mannitol factor 5) was chosen to conduct the assay. The maximum concentration tested depended on the test compound solubility and the requirement of a survival of twelve out of fifteen worms at the end of exposure.
# For all chemicals investigated in this disclosure, the medium was refreshed weekly.
# After a preliminary test (CP as reference) on different exposure times ranging from two days to six weeks, the worms were exposed for a period of two weeks, after which they were subjected to phosphorylated histone H3 immunostaining (PH3) to quantify mitosis.
# To quantify mitotic cells in whole mount specimens, the mitotic marker anti-PH3 was used. The staining was performed by first relaxing the animals in a 1:1 mixture of MgCl2.6H2O (7.14%) and ASW (5 minutes), then in MgCl2.6H2O (7.14%) (undiluted, 5 minutes), followed by fixation in paraformaldehyde (PFA, 4% in PBS, 60 minutes). Animals were then rinsed with phosphate-buffered saline (PBS, 3×5 minutes) and blocked in bovine serum albumin, containing TRITON® (BSA-T, 0.1% TRITON® X-100, 60 minutes). Subsequently, animals were incubated in primary rabbit-anti-phos-H3 (1:300 in BSA-T, overnight, 4° C., Upstate Biotechnology), rinsed in PBS (3×5 minutes) and incubated in secondary TRITC-conjugated swine-anti-rabbit (1:150 in BSA-T, 1 hour, DAKO). Finally, animals were washed with PBS (3×5 minutes) and slides were mounted using Vectashield (Vector Laboratories). Slides were analyzed using a Leica 2500P microscope equipped with epifluorescence, a 40× objective and a DFC360FX CCD camera.
# All somatic PH3-positive cells were counted manually using the Image J cell counter plugin (44) (FIG. 1). Gonadal PH3+ cells were not included in the analysis because of 1) the high density of divisions in that region that can lead to overlapping signals and 2) the germ line representing a separate population of cells, differentially tolerant to exposure, which can result in quantification variability.
# The cut-off value of the assay was determined based on density plots (R version 2.15.3; (33)) of the number of mitotic stem cells of all experiments for controls (sea water and DMSO), non-carcinogens, genotoxic carcinogens and non-genotoxic carcinogens. The cut-off value of 30 lays in the tail of the distribution corresponding to the 97.5 percentile or two standard deviations.
# Concentrations resulting in the death of 20% of the worms (three out of fifteen) during exposure were considered cytotoxic and were not analyzed.
# [3] = Solubility of test compound in the exposure medium; assay type: physicochemical; conditions: concentrations higher than 5 mM
# [4] = system: Schmidtea mediterranea; conditions: in vivo
# Procedure: as §1, with “liver. […]” for “liver.”
# In each experimental condition, animals were cut transversally immediately before exposure to a genotoxic, non-genotoxic or non-carcinogen concentration, medium (control) or medium with DMSO (vehicle control). […] Stem cell proliferation was measured after one day of regeneration (the mitotic minimum of regeneration), after three days (the mitotic maximum of regeneration), after one week (the end stage of regeneration) after two and six weeks (during homeostasis), as well as at the appearance of organismal phenotypes (15, 46, 47). Phenotypic effects were monitored daily with a stereo microscope.
# [5] = category 2 concentrations, three days (MMS), one week (4NQO), two weeks (S-PB, CPZ, MPH)
# [6] = 0.3125 μM, Experiment 1, two weeks exposure
# [7] = 0.3125 μM, Experiment 3, two weeks exposure
# [8] = 0.625 μM, Experiment 1, two weeks exposure
# [9] = 0.625 μM, Experiment 2, two weeks exposure
# [10] = 0.625 μM, Experiment 3, two weeks exposure
# [11] = Experiment 2, all concentrations, two weeks exposure
# [12] = Experiment 3, all concentrations, two weeks exposure
# [13] = 100 μM, Experiment 2, two weeks exposure
# [14] = 100 μM, Experiment 3, two weeks exposure
# [15] = 1000 μM, Experiment 1, two weeks exposure
# [16] = 1000 μM, Experiment 2, two weeks exposure
# [17] = 1000 μM, Experiment 3, two weeks exposure
# [18] = all three experiments, two weeks exposure
# [19] = asexual strain, Schmidtea mediterranea, in vivo
# [20] = asexual strain, Schmidtea mediterranea, in vivo, 2 weeks
smiles,measurement,setting,value
"CCC1(c2ccccc2)C(=O)NC(=O)NC1=O [S-PB, sodium phenobarbital]",Cat. 1 concentrations: No effects on phenotype,"[1]; S-PB, exposure two weeks",1 mM
same,Cat. 2 concentrations: Phenotypic effects,"[1]; S-PB, exposure two weeks",2000 µM
same,Cat. 3 concentrations: Mortality,"[1]; S-PB, exposure two weeks",4 mM
same,Number of animals with Behavior effects,[1]; [5],2/2
"CC/C(=C(/CC)c1ccc(O)cc1)c1ccc(O)cc1 [Diethylbestrol, Diethylstilbestrol]",Pred,[2]; [6],+ (+ in case 20% or more worms having 30 or more mitotic stem cells)
same,proportion of worms having 30 or more mitotic stem cells,[2]; [6],100%
same,proportion of worms having 30 or more mitotic stem cells,"[2]; 0.3125 μM, Experiment 2, two weeks exposure",12.5%
same,Pred,[2]; [7],+ (+ in case 20% or more worms having 30 or more mitotic stem cells)
same,proportion of worms having 30 or more mitotic stem cells,[2]; [7],33.3%
same,Pred,[2]; [8],+ (+ in case 20% or more worms having 30 or more mitotic stem cells)
same,proportion of worms having 30 or more mitotic stem cells,[2]; [8],27.3%
same,Pred,[2]; [9],+ (+ in case 20% or more worms having 30 or more mitotic stem cells)
same,proportion of worms having 30 or more mitotic stem cells,[2]; [9],50%
same,Pred,[2]; [10],+ (+ in case 20% or more worms having 30 or more mitotic stem cells)
same,proportion of worms having 30 or more mitotic stem cells,[2]; [10],22.2%
same,Prediction of the experiment,"[2]; Experiment 1, all concentrations, two weeks exposure",Pos
same,Prediction of the experiment,[2]; [11],Pos
same,Prediction of the experiment,[2]; [12],Pos
same,Overall prediction,[2],Pos
same,prediction by the assay in the experiments,[2]; two weeks exposure,predicted positive for all three experiments
O=[N+]([O-])c1cc[n+]([O-])c2ccccc12 [4-Nitroquinoline-1-oxide],Cat. 1 concentrations: No effects on phenotype,"[1]; 4NQO, exposure one week",0.0001 to 0.0005 mM
same,Cat. 2 concentrations: Phenotypic effects,"[1]; 4NQO, exposure one week",2 µM
same,Cat. 3 concentrations: Mortality,"[1]; 4NQO, exposure one week",0.005 mM
same,Number of animals with Behavior effects,[1]; [5],3/4
same,Number of animals with Pigmentation,[1]; [5],2/4
same,Number of animals with Regenerative success effects,[1]; [5],4/4
same,Number of animals with Tissue regression,[1]; [5],2/4
same,proportion of worms having 30 or more mitotic stem cells,"[2]; 0.125 μM, Experiment 2, two weeks exposure",16.7%
same,proportion of worms having 30 or more mitotic stem cells,"[2]; 0.5 μM, Experiment 1, two weeks exposure",77.8%
same,proportion of worms having 30 or more mitotic stem cells,"[2]; 0.5 μM, Experiment 2, two weeks exposure",0%
same,proportion of worms having 30 or more mitotic stem cells,"[2]; 0.5 μM, Experiment 3, two weeks exposure",36.4%
O=P1(N(CCCl)CCCl)NCCCO1 (stereo not shown) [Cyclophosphamide monohydrate],proportion of worms having 30 or more mitotic stem cells,"[2]; 50 μM, Experiment 1, two weeks exposure",0%
same,proportion of worms having 30 or more mitotic stem cells,"[2]; 50 μM, Experiment 2, two weeks exposure",0%
same,proportion of worms having 30 or more mitotic stem cells,"[2]; 50 μM, Experiment 3, two weeks exposure",16.7%
same,proportion of worms having 30 or more mitotic stem cells,"[2]; 100 μM, Experiment 1 (only three worms quantified, experiment excluded), two weeks exposure",66.7%
same,Pred,[2]; [13],+ (+ in case 20% or more worms having 30 or more mitotic stem cells)
same,proportion of worms having 30 or more mitotic stem cells,[2]; [13],20%
same,Pred,[2]; [14],+ (+ in case 20% or more worms having 30 or more mitotic stem cells)
same,proportion of worms having 30 or more mitotic stem cells,[2]; [14],33.3%
same,Prediction of the experiment,[2]; [11],Pos
same,Prediction of the experiment,[2]; [12],Pos
same,Overall prediction,[2],Pos
same,concentrations predicted positive,[2]; two weeks exposure,100 µM
same,prediction by the assay in the experiments,[2]; two weeks exposure,predicted positive in all experiments
Cc1noc(NS(=O)(=O)c2ccc(N)cc2)c1C [Sulfisoxazole],proportion of worms having 30 or more mitotic stem cells,"[2]; […] μM, Experiment 1, two weeks exposure",0%
same,proportion of worms having 30 or more mitotic stem cells,"[2]; […] μM, Experiment 3, two weeks exposure",0%
same,proportion of worms having 30 or more mitotic stem cells,"[2]; 500 μM, Experiment 1, two weeks exposure",0%
same,proportion of worms having 30 or more mitotic stem cells,"[2]; 500 μM, Experiment 2, two weeks exposure",11.1%
same,proportion of worms having 30 or more mitotic stem cells,"[2]; 500 μM, Experiment 3, two weeks exposure",0%
same,proportion of worms having 30 or more mitotic stem cells,[2]; [15],0%
same,proportion of worms having 30 or more mitotic stem cells,[2]; [16],0%
same,proportion of worms having 30 or more mitotic stem cells,[2]; [17],0%
same,concentration up to which predicted negative,[2]; [18],up to 1 mM
same,lethality of the worms,"[2]; concentrations higher than the highest analyzed (Sox >1 mM, CP >100 μM, 4NQO >0.5 μM)",greater than 20%
same,prediction by the assay in the experiments,[2]; two weeks exposure,predicted negative for all three experiments
OC[C@@H](O)[C@@H](O)[C@H](O)[C@H](O)CO [D-mannitol],solubility in the medium,[3],insolubility in the medium
same,phenotypic effects induced by exposure,[1]; in vivo,no phenotypic effects
same,effects on proliferative responses,[4],no significant effects
same,proportion of worms having 30 or more mitotic stem cells,[2]; [15],0%
same,proportion of worms having 30 or more mitotic stem cells,[2]; [16],0%
same,proportion of worms having 30 or more mitotic stem cells,[2]; [17],0%
same,proportion of worms having 30 or more mitotic stem cells,"[2]; 5000 μM, Experiment 1, two weeks exposure",0%
same,proportion of worms having 30 or more mitotic stem cells,"[2]; 5000 μM, Experiment 2, two weeks exposure",0%
same,proportion of worms having 30 or more mitotic stem cells,"[2]; 5000 μM, Experiment 3, two weeks exposure",0%
same,concentration up to which predicted negative,[2]; [18],up to 5 mM
same,worms having a number of mitotic stem cells exceeding the cut-off value,"[2]; all three experiments, up to 5 mM, two weeks exposure",0%
same,prediction by the assay in the experiments,[2]; two weeks exposure,predicted negative by the assay for all three experiments
"CN(C)CCCN1c2ccccc2Sc2ccc(Cl)cc21 [CPZ, chlorpromazine hydrochloride]",Number of animals with Behavior effects,[1]; [19],4/4
same,Number of animals with Body size effects,[1]; [19],2/2
same,concentrations that trigger phenotypic effects,[1]; [19],1 µM
same,Cat. 1 concentrations: No effects on phenotype,[1]; [20],0.00025 to 0.0005 mM
same,Cat. 2 concentrations: Phenotypic effects,[1]; [20],0.75 to 1 µM
same,Cat. 3 concentrations: Mortality,[1]; [20],0.002 mM
"CN(C)CCN(Cc1cccs1)c1ccccn1 [MPH, methapyrilene hydrochloride]",Number of animals with Behavior effects,[1]; [19],8/8
same,Number of animals with Body size effects,[1]; [19],8/8
"COS(C)(=O)=O [MMS, methyl methane sulphonate]",Cat. 2 concentrations: Phenotypic effects,"[1]; MMS, exposure three days",400 to 500 µM
same,Cat. 3 concentrations: Mortality,"[1]; MMS, exposure three days",1 mM
same,Number of animals with Behavior effects,[1]; [5],14/14
same,Number of animals with Body size effects,[1]; [5],10/14
same,Number of animals with Pigmentation,[1]; [5],1/14
same,Number of animals with Regenerative success effects,[1]; [5],14/14
same,Number of animals with Tissue regression,[1]; [5],3/14
